From patent US20050038022A1, “Method for treatment of cancer and compositions for use therein” (Unisearch Limited, priority 2001, published 2005)

Experiments:
[1] = system: SKHEP-1 subcutaneous tumor; experiment: Tumor formation in nude mice; type: in vivo, BALB/c Nu/Nu mice; settings: for maximum proliferation index (MPI), Ki-67: mean±s.e.m.
Procedure: 6 to 10 weeks old male BALB/c Nu/Nu mice (Animal Resources Center, Perth, Australia) were inoculated subcutaneously with 10^6 SKHEP-1 cells into the right flank. 24 hours after inoculation animals were randomly assigned to one of the treatment groups (n=10 per group), receiving 25, 50 or 150 mg/kg twice daily oral albendazole suspended in sesame oil for 20 days.
The control group was treated with the vehicle (sesame oil). Using vernier calipers, tumor diameter (mm) was measured on day eight and then every three days up to day 20-post tumor cell inoculation. Tumor volumes were calculated using the formula: ab^2/2 where a and b are the […] diameters in millimeters, respectively and a piece of the tumor was preserved in paraffin for immunohistochemical determination of maximum proliferation index (MPI). Here, after fixation, the specimen was processed for the detection of Ki-67 antigen with the monoclonal antibody MIB1 according to the method described by McCormick.
The animal model was chosen on the basis of SKHEP-1 being the most tumorigenic human liver cancer cell line in nude mice and previous experience with the model.

[2] = system: PLC/PRF/5; experiment: [3H]thymidine incorporation assay, PLC/PRF/5; type: cell-based, human; settings: 5 days
Procedure: (§1) HepG2, Hep3-B, Hep1-6, SKHEP-1, PLC/PRF/5, and HTC cells were obtained from European Collection of Cell Cultures (ECACC; U.K), Novikoff was obtained from Cancer Research Centre (DKFZ) Heidelberg, Germany. Cells were cultured in MEM or DMEM supplemented with 10% FBS, 50 units/ml penicillin, 50 units/ml streptomycin, 25 μg/ml amphotericin B (Gibco, Grand Island, N.Y.) and maintained subconfluent at 37° C. in humidified incubators containing 5% CO2. Albendazole (Sigma, Australian subsidiary) was dissolved in absolute ethanol at concentrations that were 1000-fold higher than the final medium concentration.

[3] = system: Hep1-6; experiment: [3H]thymidine incorporation assay, Hep1-6; type: cell-based, mice; settings: 5 days
Procedure: as §1

[4] = system: NIH:OVCAR-3; experiment: Cell count, ovarian cancer cell line; type: cell-based, human; settings: OVCAR-3, 0.1 and 1 micromoles/L, evident from day 1
Procedure: Cells were treated with either the medium alone (control) or 0.1 and 1 micromoles/L of albendazole for 0, 1, 3, 6 or 10 days and the number of viable cells counted. […] This was evident from day 1 after the treatment

[5] = system: SKHEP-1 cells; experiment: Cell cycle analysis by flow cytometry; type: cell-based, human; settings: 3 days (FIG. 3)
Procedure: SKHEP-1 cells (5×10^4) were plated onto six-well tissue culture plates. Triplicate samples were treated with the indicated concentrations of albendazole (100, 250 and 1000 nM). The medium was changed everyday. After 72 h the relevant group of cells were collected, washed twice with phosphate buffer and treated with ribonuclease, Triton X-100 and propidium iodide (Sigma) based on the method described by Taylor [12]. The percentage of cells within the G1, S, and G2-M phases of the cell cycle were determined using a FACScan flow cytometer (Becton Dickinson FACSort) and Multifit LT cell cycle analysis software (Verity Software INC.)

[6] = system: HCC cell lines; experiment: [3H]thymidine incorporation, all HCC cell lines (summary); settings: 1000 nM albendazole
Procedure: For the study of [^3H]thymidine incorporation, adherent cells (5-10×10^4) were plated onto 24-well Corning tissue culture dishes and were exposed to culture medium (5% FBS) containing the vehicle (0.1% ethanol) or different concentrations of albendazole (10^−8 to 10^−6 M). For Novikoff, a detached rat cell line, 2500 cells were suspended in 2 ml of DMEM (5% FBS) and kept under the same condition as for attached cells. Media were replaced with fresh media on alternate days. At the end of the treatment period (5 days), cell cultures were assayed for thymidine incorporation by the addition of 0.5 μCi of [^3H]thymidine (60 Ci/mmol. ICN Biochem, Irvine, Calif.) to each well for the last 4 h of culture. The amount of radioactivity incorporated into cells was determined using a β-scintillation counter. […] For the recovery experiments, SKHEP-1 cells were treated for 1 day with different concentrations of albendazole and then either assayed for [^3H]thymidine incorporation or the medium was replaced and the cells treated with fresh medium with out the drug for a further 4 days at the end of which, [^3H] thymidine incorporation assay was performed.
[^3H]Thymidine incorporation assay was used to determine the effect of albendazole on cell proliferation in a number of human (HepG2, Hep3-B, PLC/PRF/5, SKHEP-1), rat (HTC and Novikoff) and mice (Hep1-6) HCC cell lines.

[7] = system: HepG2; experiment: Combination with methimazole (MT), HepG2 growth; type: cell-based; settings: HepG2, albendazole alone 0.25, 0.1 and 0.01uM, 5 days
Procedure: (§2) The effect of inhibition of metabolism of albendazole on its antiproliferative activity was investigated using […] and the methimazole as an inhibitor of albendazole
(§3) 5000 cells each of HepG2 and S EP1 were plated into 24 wells plates and treated for 5 days with various concentrations of albendazole alone or together with MT.

[8] = system: Hep3-B; experiment: [3H]thymidine incorporation assay, Hep3-B; type: cell-based, human; settings: 5 days
Procedure: as §1

[9] = at all times after a 400 mg oral dose; cited from earlier work
[10] = system: Novikoff; experiment: [3H]thymidine incorporation assay, Novikoff; type: cell-based, rat; settings: 5 days
Procedure: as §1

[11] = system: SKHEP-1; experiment: [3H]thymidine incorporation assay, SKHEP-1; type: cell-based, human
Procedure: as §1

[12] = system: SKHEP-1; experiment: Combination with methimazole (MT), SKHEP-1 growth; type: cell-based; settings: SKHEP-1, albendazole 0.25 μM, 5 days
Procedure: as §2, §3

[13] = system: HTC; experiment: [3H]thymidine incorporation assay, HTC; type: cell-based, rat; settings: 5 days
Procedure: as §1

Question: For CCCSc1ccc2nc(NC(=O)OC)[nH]c2c1 [albendazole, methyl 5-propylthio-1H-benzimidazole-2-yl carbamate], which “maximum proliferation index (MPI), Ki-67” value ([1]; 50 mg/kg dose) is on record?
Answer: Its value is 22.54±1.53.

Question: And the “maximum proliferation index (MPI), Ki-67” value ([1]; 150 mg/kg dose)?
Answer: The value was 13.36±3.04.

Question: What about the mean tumor volume ([1]; 300 mg/kg dose oral in sesame oil, 20 days post inoculation, p<0.001) of the same compound?
Answer: The mean tumor volume was 12.0±7.8 mm^3.

Question: And the tumor growth ([1]; 50 and 150 mg/kg per day oral)?
Answer: The tumor growth was “slightly but not significantly retarded”.

Question: What about the “[3H]thymidine incorporation” value ([2]; PLC/PRF/5, albendazole 10 nM) of the same compound?
Answer: The value was 92.7 ± 4.7 % control.

Question: And the “[3H]thymidine incorporation” value ([2]; PLC/PRF/5, albendazole 100 nM)?
Answer: The value was 69.4 ± 5.2 % control.

Question: And the “[3H]thymidine incorporation” value ([2]; PLC/PRF/5, albendazole 500 nM)?
Answer: Its value is 26.9 ± 2.7 % control.

Question: What about the “[3H]thymidine incorporation” value ([2]; PLC/PRF/5, albendazole 1000 nM) of the same compound?
Answer: Its value is 18.4 ± 2.1 % control.

Question: And the “[3H]thymidine incorporation” value ([3]; Hep1-6, albendazole 10 nM)?
Answer: The value was 97.7 ± 4.3 % control.

Question: And the “[3H]thymidine incorporation” value ([3]; Hep1-6, albendazole 100 nM)?
Answer: The value was 79.5 ± 3.2 % control.

Question: What about the “[3H]thymidine incorporation” value ([3]; Hep1-6, albendazole 500 nM) of the same compound?
Answer: Its value is 28.1 ± 2.5 % control.

Question: And the “[3H]thymidine incorporation” value ([3]; Hep1-6, albendazole 1000 nM)?
Answer: Its value is 5.6 ± 0.6 % control.

Question: What about the “number of viable cells” value [4] of the same compound?
Answer: Its value is “profound reduction in cell number”.

Question: And the “effect on cell cycle distribution” value ([5]; SKHEP-1, 250 nM)?
Answer: The value was “accumulation of cells in the G0-G1 phase”.

Question: What about the “effect on cell cycle distribution” value ([5]; SKHEP-1, 1000 nM) of the same compound?
Answer: The value was “arrest and accumulation of cells in the G2-M phase”.

Question: What about the thymidine incorporation [6] of the same compound?
Answer: The thymidine incorporation was “less than 20 % of control values”.

Question: And the growth inhibition [7]?
Answer: Its growth inhibition is “no growth inhibition”.

Question: What about the “[3H]thymidine incorporation” value ([8]; albendazole 10 nM) of the same compound?
Answer: The value was 105.7 ± 8.6 % control.

Question: And the “[3H]thymidine incorporation” value ([8]; albendazole 100 nM)?
Answer: The value was 68.5 ± 5.7 % control.

Question: And the “[3H]thymidine incorporation” value ([8]; albendazole 500 nM)?
Answer: The value was 22.6 ± 1.8 % control.

Question: And the “[3H]thymidine incorporation” value ([8]; albendazole 1000 nM)?
Answer: The value was 9.3 ± 0.7 % control.

Question: And the “concentration of the unchanged drug” value [9]?
Answer: The value was “below the detection limits”.

Question: What about the “[3H]thymidine incorporation” value ([10]; albendazole 10 nM) of the same compound?
Answer: Its value is 96.5 ± 8.8 % control.

Question: What about the “[3H]thymidine incorporation” value ([10]; albendazole 100 nM) of the same compound?
Answer: The value was 71.6 ± 5.9 % control.

Question: And the “[3H]thymidine incorporation” value ([10]; albendazole 500 nM)?
Answer: The value was 29.2 ± 3.3 % control.

Question: And the “[3H]thymidine incorporation” value ([10]; albendazole 1000 nM)?
Answer: Its value is 10.3 ± 1.8 % control.

Question: And the inhibition at 1 µM ([11]; Homo sapiens, SK-HEP1, 120 h, SKHEP-1, 1000 nM albendazole, 5 days)?
Answer: The inhibition at 1 µM was 99.4%.

Question: And the “thymidine incorporation after 1 day exposure” value ([11]; SKHEP-1, 1 day, concentrations of 250 nM and over (FIG. 1a))?
Answer: Its value is “profound inhibition of thymidine incorporation”.

Question: And the “[3H]thymidine incorporation” value ([11]; SKHEP-1, albendazole 10 nM, 5 days)?
Answer: The value was 89.6 ± 6.1 % control.

Question: And the “[3H]thymidine incorporation” value ([11]; SKHEP-1, albendazole 100 nM, 5 days)?
Answer: The value was 63.7 ± 3.1 % control.

Question: What about the “[3H]thymidine incorporation” value ([11]; SKHEP-1, albendazole 500 nM, 5 days) of the same compound?
Answer: Its value is 4.5 ± 1.1 % control.

Question: And the growth inhibition [12]?
Answer: Its growth inhibition is “profoundly inhibited”.

Question: What about the “[3H]thymidine incorporation” value ([13]; albendazole 10 nM) of the same compound?
Answer: The value was 98.4 ± 7.5 % control.

Question: And the “[3H]thymidine incorporation” value ([13]; albendazole 100 nM)?
Answer: Its value is 86.0 ± 6.9 % control.

Question: And the “[3H]thymidine incorporation” value ([13]; albendazole 500 nM)?
Answer: The value was 28.5 ± 2.2 % control.

Question: And the “[3H]thymidine incorporation” value ([13]; albendazole 1000 nM)?
Answer: The value was 11.4 ± 1.3 % control.
